Measurements from patent publication US8148391B2 (Cephalon, Inc., priority 2006, dated 2012).
Read-outs that look alike come from different tables or passages of the source.

How the values were obtained:
[1] = target: T1, baculovirus-expressed ALK (Homo sapiens, UniProt Q9UM73); experiment: ALK Kinase Assay (ELISA-type, time-resolved fluorescence); assay type: biochemical
T1 construct: host or cells: baculovirus expression system
Method in brief: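 Plates coated with phospholipase C-γ substrate (10 μg/mL in TBS); reaction started with 30 ng/ml ALK and run 15 min at 37° C. Phosphorylated substrate detected with Eu-N1-labeled PT66 antibody. IC50 from sigmoidal variable-slope fit of percent inhibition vs log concentration.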

[2] = target: T2, c-Met (cytoplasmic domain) (Homo sapiens, UniProt P08581); experiment: c-Met Kinase Assay (same methods as for ALK, with modifications); assay type: biochemical
T2 construct: 10 ng/mL c-Met (cytoplasmic domain, Invitrogen Corporation #PV3143); purchased Invitrogen Corporation PV3143
Method in brief: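 Plates were coated with phospholipase C-γ substrate (10 μg/mL) in TBS, and the reaction was started with 10 ng/mL c-Met cytoplasmic domain and run 15 min at 37 °C. Phosphoproduct was detected with Eu-N1-labelled PT66 antibody. IC50 came from a variable-slope sigmoidal fit of percent inhibition vs log concentration.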

[3] = ALK kinase inhibition, 1 μM ATP, read-out: ALK Activity
[4] = c-Met kinase inhibition, 1 μM ATP, read-out: cMet Activity
[5] = ALK kinase inhibition, 1 μM ATP (Km level), read-out: ALK Activity
[6] = c-Met kinase inhibition, 1 μM ATP (Km level), read-out: cMet Activity
[7] = 1 μM ATP (Km level), 30 ng/ml ALK, 37° C., 15 minutes, read-out: ALK Activity (ALK kinase inhibition, IC50 class)
[8] = 1 μM ATP (Km level), 10 ng/mL c-Met, read-out: cMet Activity (c-Met kinase inhibition, IC50 class)
[9] = 1 μM ATP (Km level), read-out: ALK Activity (ALK Kinase Inhibition, IC50)
[10] = 1 μM ATP (Km level), read-out: cMet Activity (c-Met Kinase Inhibition, IC50)

T2 sequence (P08581 956-1390 limits assumed): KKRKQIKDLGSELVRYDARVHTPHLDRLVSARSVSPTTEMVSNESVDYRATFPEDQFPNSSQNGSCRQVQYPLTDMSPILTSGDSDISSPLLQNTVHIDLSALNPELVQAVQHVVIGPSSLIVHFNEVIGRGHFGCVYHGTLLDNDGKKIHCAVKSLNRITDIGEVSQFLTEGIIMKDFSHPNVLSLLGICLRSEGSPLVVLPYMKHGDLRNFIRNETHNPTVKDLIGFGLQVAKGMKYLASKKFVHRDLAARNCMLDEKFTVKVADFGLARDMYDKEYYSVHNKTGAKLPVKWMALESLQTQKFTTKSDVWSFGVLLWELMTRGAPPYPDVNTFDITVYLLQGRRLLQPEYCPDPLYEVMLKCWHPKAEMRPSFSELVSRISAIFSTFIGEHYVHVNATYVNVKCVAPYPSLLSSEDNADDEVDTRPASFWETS
T1 sequence (Q9UM73 19-1620): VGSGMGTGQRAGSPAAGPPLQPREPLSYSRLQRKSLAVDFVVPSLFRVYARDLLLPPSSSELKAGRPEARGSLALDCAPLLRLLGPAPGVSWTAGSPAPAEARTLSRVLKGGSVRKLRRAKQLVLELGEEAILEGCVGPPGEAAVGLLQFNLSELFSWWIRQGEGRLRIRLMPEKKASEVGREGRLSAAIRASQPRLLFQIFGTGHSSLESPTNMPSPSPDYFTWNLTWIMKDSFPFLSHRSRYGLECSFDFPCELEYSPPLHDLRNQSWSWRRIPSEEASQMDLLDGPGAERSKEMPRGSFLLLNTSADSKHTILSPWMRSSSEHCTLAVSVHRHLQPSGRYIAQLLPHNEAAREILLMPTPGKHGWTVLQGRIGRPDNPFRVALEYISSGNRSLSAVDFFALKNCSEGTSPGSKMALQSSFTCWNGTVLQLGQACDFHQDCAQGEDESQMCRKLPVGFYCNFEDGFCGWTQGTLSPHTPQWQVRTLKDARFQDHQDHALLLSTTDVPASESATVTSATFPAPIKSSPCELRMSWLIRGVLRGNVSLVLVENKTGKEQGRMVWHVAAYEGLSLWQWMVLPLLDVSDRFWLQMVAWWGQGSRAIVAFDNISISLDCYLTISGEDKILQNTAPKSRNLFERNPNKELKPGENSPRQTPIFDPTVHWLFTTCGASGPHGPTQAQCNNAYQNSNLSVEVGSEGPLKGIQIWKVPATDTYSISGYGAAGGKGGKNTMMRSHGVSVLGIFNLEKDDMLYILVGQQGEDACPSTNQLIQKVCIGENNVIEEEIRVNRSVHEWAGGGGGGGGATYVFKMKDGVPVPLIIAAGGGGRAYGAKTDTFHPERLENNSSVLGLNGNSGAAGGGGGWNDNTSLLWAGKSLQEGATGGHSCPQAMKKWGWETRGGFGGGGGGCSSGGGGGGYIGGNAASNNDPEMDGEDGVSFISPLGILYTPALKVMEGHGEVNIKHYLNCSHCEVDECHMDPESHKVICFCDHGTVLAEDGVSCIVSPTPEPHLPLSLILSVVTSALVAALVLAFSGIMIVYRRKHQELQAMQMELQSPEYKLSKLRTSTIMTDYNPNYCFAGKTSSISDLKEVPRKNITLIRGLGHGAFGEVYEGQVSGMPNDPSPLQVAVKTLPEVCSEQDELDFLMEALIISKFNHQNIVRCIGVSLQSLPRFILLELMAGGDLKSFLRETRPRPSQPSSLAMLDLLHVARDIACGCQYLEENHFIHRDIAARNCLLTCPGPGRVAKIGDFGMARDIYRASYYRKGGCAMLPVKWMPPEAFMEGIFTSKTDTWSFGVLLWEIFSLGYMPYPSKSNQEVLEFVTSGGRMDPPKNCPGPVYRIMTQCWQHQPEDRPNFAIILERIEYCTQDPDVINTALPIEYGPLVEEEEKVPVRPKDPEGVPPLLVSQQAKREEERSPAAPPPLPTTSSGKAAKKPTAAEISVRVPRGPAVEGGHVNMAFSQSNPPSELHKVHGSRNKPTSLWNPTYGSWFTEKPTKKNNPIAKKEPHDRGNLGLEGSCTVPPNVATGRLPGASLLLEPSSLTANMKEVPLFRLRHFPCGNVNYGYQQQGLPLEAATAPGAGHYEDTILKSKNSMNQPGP

Row | IC50 [1, 3] [nM] | IC50 [2, 4] [nM] | IC50 [1, 5] [nM] | IC50 [2, 6] [nM] | Structure (SMILES) | also measured
1 | < 100 | > 10000 |  |  | COCCN1CCc2cc(Nc3ncc(Cl)c(N[C@@H]4CCCC[C@H]4N(C)S(C)(=O)=O)n3)c(OC)cc2CC1 [Example 1676, N-((1R,2R)-2-{5-Chloro-2-[8-methoxy-3-(2-methoxy-ethyl)-2,3,4,5-tetrahydro-1H-benzo[d]azepin-7-ylamino]-pyrimidin-4-ylamino}-cyclohexyl)-N-methyl-methanesulfonamide] | 
2 | < 100 | 100 to 1000 |  |  | CN1Cc2cc(Nc3ncc(Cl)c(Nc4cccc5c4OC(F)(F)O5)n3)ccc2CCC1=O [Example 1803, 8-[5-Chloro-4-(2,2-difluoro-benzo[1,3]dioxol-4-ylamino)-pyrimidin-2-ylamino]-2-methyl-1,2,4,5-tetrahydro-benzo[c]azepin-3-one] | 
3 | < 100 | > 10000 |  |  | CCN1CC(=O)Nc2cc(Nc3ncc(Cl)c(Nc4ccccc4S(=O)(=O)N(C)C)n3)c(OC)cc2C1 [Example 1659, 2-[5-Chloro-2-(4-ethyl-7-methoxy-2-oxo-2,3,4,5-tetrahydro-1H-benzo[e][1,4]diazepin-8-ylamino)-pyrimidin-4-ylamino]-N,N-dimethyl-benzenesulfonamide] | 
4 | 1000 to 10000 | > 10000 |  |  | CNC(=O)c1ccccc1N(C)c1nc(Nc2ccc3c(c2)CC(=O)N(C)CC3)ncc1F [Example 1824, 2-{[5-Fluoro-2-(3-methyl-4-oxo-2,3,4,5-tetrahydro-1H-benzo[d]azepin-7-ylamino)-pyrimidin-4-yl]-methyl-amino}-N-methyl-benzamide] | 
5 | 100 to 1000 | 100 to 1000 |  |  | CNC(=O)c1scc(C)c1Nc1nc(Nc2ccc3c(c2)C(C)(C)CCC(=O)N3)ncc1Cl [Example 1572, 3-[5-Chloro-2-(5,5-dimethyl-2-oxo-2,3,4,5-tetrahydro-1H-benzo[b]azepin-7-ylamino)-pyrimidin-4-ylamino]-4-methyl-thiophene-2-carboxylic acid methyl amide] | 
6 | 100 to 1000 | 1000 to 10000 |  |  | COc1cc(N2CCOCC2)ccc1Nc1nc(Nc2ccc3c(c2)N(C(C)=O)CCCC3(C)C)ncc1Cl [Example 1598, 1-{8-[5-Chloro-4-(2-methoxy-4-morpholin-4-yl-phenylamino)-pyrimidin-2-ylamino]-5,5-dimethyl-2,3,4,5-tetrahydro-benzo[b]azepin-1-yl}-ethanone] | 
7 | 100 to 1000 | 100 to 1000 |  |  | CNC(=O)c1ccc(C(F)(F)F)cc1Nc1nc(Nc2ccc3c(c2)CCOC(=O)N3C)ncc1Cl [Example 1754, 2-[5-Chloro-2-(5-methyl-6-oxo-5,6,8,9-tetrahydro-7-oxa-5-aza-benzocyclohepten-2-ylamino)-pyrimidin-4-ylamino]-N-methyl-4-trifluoromethyl-benzamide] | 

More lines, now with the values behind:

Row | Structure (SMILES) | IC50 [1, 3] [nM] | IC50 [2, 4] [nM] | IC50 [1, 5] [nM] | IC50 [2, 6] [nM] | also measured
8 | CNS(=O)(=O)c1ccccc1Nc1nc(Nc2ccc3c(c2)CCCC(=O)N3CC(=O)OC)ncc1Cl [Example 8, {7-[5-Chloro-4-(2-methylsulfamoyl-phenylamino)-pyrimidin-2-ylamino]-2-oxo-2,3,4,5-tetrahydro-benzo[b]azepin-1-yl}-acetic acid methyl ester] |  |  | < 100 | < 100 | 
9 | COc1c(Nc2ncc(Cl)c(Nc3ccccc3S(=O)(=O)N(C)C)n2)ccc2c1CC(N1CCOCC1)CCC2 (racemic) [Example 1210, 2-[5-Chloro-2-(1-methoxy-8-morpholin-4-yl-6,7,8,9-tetrahydro-5H-benzocyclohepten-2-ylamino)-pyrimidin-4-ylamino]-N,N-dimethyl-benzenesulfonamide] |  |  |  |  | IC50 [1, 7]: < 100 nM; IC50 [2, 8]: 1000 to 10000 nM
10 | CNS(=O)(=O)c1ccccc1Nc1nc(Nc2ccc3c(c2)COCCN3C)ncc1Cl [Example 17, 2-[5-Chloro-2-(1-methyl-1,2,3,5-tetrahydro-benzo[e][1,4]oxazepin-7-ylamino)-pyrimidin-4-ylamino]-N-methyl-benzenesulfonamide] |  |  | < 100 | < 100 | 
11 | COc1cc2c(cc1Nc1ncc(Cl)c(N[C@H]3[C@@H](C(N)=O)[C@@H]4C=C[C@H]3C4)n1)CCN(Cc1ncco1)CC2 [Example 1179, (1S,2S,3R,4R)-3-[5-Chloro-2-(8-methoxy-3-oxazol-2-ylmethyl-2,3,4,5-tetrahydro-1H-benzo[d]azepin-7-ylamino)-pyrimidin-4-ylamino]-bicyclo[2.2.1]hept-5-ene-2-carboxylic acid amide] |  |  |  |  | IC50 [1, 7]: < 100 nM; IC50 [2, 8]: > 10000 nM
12 | C#CCN1CC2CCC(C1)c1cc(Nc3ncc(Cl)c(Nc4ccccc4S(=O)(=O)NC)n3)ccc12 (centres unmarked) [Example 287, 2-[5-Chloro-2-(10-prop-2-ynyl-10-aza-tricyclo[6.3.2.0*2,7*]trideca-2,4,6-trien-4-ylamino)-pyrimidin-4-ylamino]-N-methyl-benzenesulfonamide] |  |  | < 100 | 100 to 1000 | 
13 | NC(=O)[C@@H]1[C@H](Nc2nc(Nc3ccc4c(c3)CCC(N3CCOCC3)CC4)ncc2C(F)(F)F)[C@H]2C=C[C@@H]1C2 (stereo partly drawn) [Example 935, (1S,2S,3R,4R)-3-[2-(7-Morpholin-4-yl-6,7,8,9-tetrahydro-5H-benzocyclohepten-2-ylamino)-5-trifluoromethyl-pyrimidin-4-ylamino]-bicyclo[2.2.1]hept-5-ene-2-carboxylic acid amide] |  |  |  |  | IC50 [1, 9]: < 100 nM; IC50 [2, 10]: < 100 nM
14 | CNC(=O)c1ccccc1Nc1nc(Nc2c(OC)ccc3c2CCOC(=O)N3C)ncc1Cl [Example 1517, 2-[5-Chloro-2-(2-methoxy-5-methyl-6-oxo-5,6,8,9-tetrahydro-7-oxa-5-aza-benzocyclohepten-1-ylamino)-pyrimidin-4-ylamino]-N-methyl-benzamide] | 1000 to 10000 | > 10000 |  |  | 
15 | COCCN1C(=O)CCC(C)(C)c2ccc(Nc3ncc(Cl)c(Nc4c(F)cccc4OCC#N)n3)cc21 [Example 1521, (2-{5-Chloro-2-[1-(2-methoxy-ethyl)-5,5-dimethyl-2-oxo-2,3,4,5-tetrahydro-1H-1-benzazepin-8-ylamino]-pyrimidin-4-ylamino}-3-fluoro-phenoxy)-acetonitrile] | < 100 | < 100 |  |  | 
16 | CN1C(=O)CCCc2cc(Nc3ncc(Cl)c(Nc4ccccc4C(=O)NCCO)n3)ccc21 [Example 6, 2-[5-Chloro-2-(1-methyl-2-oxo-2,3,4,5-tetrahydro-1H-benzo[b]azepin-7-ylamino)-pyrimidin-4-ylamino]-N-(2-hydroxy-ethyl)-benzamide] |  |  | < 100 | < 100 | 
17 | COCCN1CCc2ccc(Nc3ncc(Cl)c(NC(C)(C)CNS(C)(=O)=O)n3)cc2CC1 [Example 306, N-(2-{5-Chloro-2-[3-(2-methoxy-ethyl)-2,3,4,5-tetrahydro-1H-benzo[d]azepin-7-ylamino]-pyrimidin-4-ylamino}-2-methyl-propyl)-methanesulfonamide] |  |  | 100 to 1000 | > 10000 | 
18 | COc1cc2c(cc1Nc1ncc(Cl)c(N[C@H]3[C@@H](C(N)=O)[C@@H]4C=C[C@H]3C4)n1)N(C)C(=O)CNC2 [Example 743, (1S,2S3,R,4R)-3-[5-Chloro-2-(7-methoxy-1-methyl-2-oxo-2,3,4,5-tetrahydro-1H-benzo[e][1,4]diazepin-8-ylamino)-pyrimidin-4-ylamino]-bicyclo[2.2.1]hept-5-ene-2-carboxylic acid amide] |  |  |  |  | IC50 [1, 9]: < 100 nM; IC50 [2, 10]: > 10000 nM
19 | CCN1CCc2ccc(Nc3ncc(Cl)c(N[C@@H]4CCCC[C@H]4NC(C)=O)n3)cc2CC1 [Example 445, N-{(1R,2R)-2-[5-Chloro-2-(3-ethyl-2,3,4,5-tetrahydro-1H-benzo[d]azepin-7-ylamino)-pyrimidin-4-ylamino]-cyclohexyl}-acetamide] |  |  | < 100 | < 100 | 
